Results from patent publication US5840740A, “Aminosterol compounds and a method of treating infection using the aminosterol compounds” (priority 1995, dated 1998).
“Also recorded” adds a separate entry of the source.

Key:
[1] = Hematological profile in L1210-inoculated mice
Excerpt: C57B mice were inoculated with L1210 lymphoblastic leukemia cells at an inoculum that causes leukemia in 100% of animals.

NHE1β = conditions: background, nucleated erythrocytes; cited from earlier work
[2] = system: chick embryo vitelline capillaries; experiment: Chick embryo vitelline capillary regression assay; format: in vivo; set-up: key to vascular reactivity (capillary regression): +: Vascular reactivity; 0: No vascular reactivity; +/-: Equivocal reactivity; conditions: for vascular reactivity (capillary regression): 60 min; for Chick embryo diss. assay, Minimum Effective Concentration: Table II; for effect on chick embryo vessels / blood: in words
Method: Using the chick embryo vitelline capillaries assay, compounds were tested for their ability to induce capillary regression. Each compound was applied in 0.1 ml of 15% Ficol 400 and PBS onto the embryo, and vascular regression was assessed after 60 minutes.
The 3-day chick embryo consists of an embryonic disc from which numerous vessels emerge and return, forming a "figure 8"-shaped structure--the embryo in the center with vascular loops extending outward over both poles. […] Following a lag period of around 15 minutes, the constriction of continuity between capillary and secondary vessels, generally on the "avenous" side, was observed. Continued pulsatile blood flow progressed, resulting in a "swelling" of the blind tube, followed by a pinching off of the remaining connection and formation of an enclosed vascular sac resembling a "blood island." This process progressed until only the largest vessels remained intact.

human melanoma = experiment: Growth of human melanoma cells over time / cell death; format: cell-based
Xenopus tadpole = conditions: stage 59-60, 10 μg/ml; in words
[3] = system: human microvascular cells; experiment: Inhibition of endothelial cell cord formation in vitro; format: cell-based; conditions: Homo sapiens, Endothelial cell; Table II; read-out: Cord Formation, Minimum Effective Concentration
Excerpt: Endothelial cells have the capacity in vitro to form tubular aggregates resembling capillaries in various early stages of formation. This conversion occurs under relatively specific conditions, in which essential growth factors along with an effective substratum are provided. It has been shown that both the interaction of growth factors with the endothelial cell and its attachment to a substratum activate the NHE. The activation of this exchanger is believed to be required for subsequent morphologic transformation of the endothelial cell into a multicellular tubular structure.
To assess the effect of compounds on the cord-like structures formed by human microvascular cells when plated in the presence of VEFG (Vascular Endothelial Growth Factor) and basic fibroblast growth factor on a collagen matrix, a standard cord formation assay was used.

B16 melanoma = B16 melanoma growth in C57B mice; format: in vivo, mouse; conditions: compound 319, text subcutaneous, FIG. 6 legend intraperitoneal
Method: The growth of B16 melanoma in C57B mice is dependent upon neovascularization.
Using the growth of B16 melanoma cells in C57B mice, a recognized model for the evaluation of inhibitors of angiogenesis on the growth of cancers, the effects of subcutaneous, intraperitoneal and oral administration of squalamine were evaluated.
In this model, there was observed little evidence of metastasis with or without treatment with chemotherapeutic agents.
Based on the idea that tumor growth involves both the clonal expansion of a malignant cell along with the development of a supporting vascular supply, a combination of compound 1436 with squalamine was tested to determine whether it would achieve a synergistic effect on solid tumor growth. This concept was evaluated in the B16 melanoma model.
Animals were implanted with B16 melanoma followed by treatment with compound 1436 or 1256 administered in a combined schedule or separately. […] Thus, a combination of these two compounds achieves a therapeutic benefit in tumors dependent on neovascularization that may prevent metastatic spread.

[4] = system: Human ovarian carcinoma SKOV3; experiment: Growth inhibition in vitro; format: cell-based; conditions: in words
Excerpt: As set forth in Table 7 below, all malignant tumors evaluated in tissue culture, endothelial cells and vascular smooth muscle cells were sensitive to inhibition. Thus, compound 1436 has application in the control of growth factor dependent proliferation of many types of tissue.

[5] = Fasting blood glucose in mice; format: in vivo, mouse (male CD-1); conditions: mouse, in vivo, iv
Method: To study the effect of steroid administrator or the NHE responsible for secretion of insulin, several of the aminosterols from shark liver were administered to fasting mice. Male CD-1 mice were assigned to one of four treatment groups. Whole blood glucose was tested using glucometer (Lifescan Glucometer II and One Touch test strips). Statistical analysis was via one-way analysis of variance (ANOVA) followed by subsequent Bonferonni's t-test.

[6] = L1210 mice, cisplatin 8 mg/kg ip or compound 1436 10 mg/kg ip q4d

With `N.N.[Cl][Pt][Cl]` [Cisplatin] the “RBC, Early Time” value [1, 6] was 9.4 10^6 /mm^3, the “RBC, Late Time” value [1, 6] was 1.5 10^6 /mm^3 and the “WBC, Early Time” value [1, 6] was 8.1 10^3 /mm^3. The “WBC, Late Time” value [1, 6] was 18.1 10^3 /mm^3 and the hematological profile ([1]; in words) was “profound anemia by day 28”.

In the case of `N=C(N)NC(=O)c1nc(Cl)c(N)nc1N` [Amiloride], the “inhibition of NHE1β” value (NHE1β) is listed as “inhibited by high concentrations of amiloride”.

In the case of `CC(C)CCC[C@@H](C)[C@H]1CC[C@H]2[C@@H]3CC[C@H]4C[C@@H](NCCCNCCCCNCCCN)CC[C@]4(C)[C@H]3CC[C@]12C` [Compound 353], the “vascular reactivity (capillary regression)” value (shortened to “vascular reactivity”) ([2]; 1 μg applied) is reported as “+/-”, the “Chick embryo diss. assay, Minimum Effective Concentration” value (shortened to “Chick embryo diss. assay”) [2] is reported as over 1 µg and the “effect on chick embryo vessels / blood” value [2] is reported as “no effect on the chick embryo capillary bed”. The “effect on growth of melanoma” value (human melanoma; 48 hours vs first 12 hours) was “most pronounced over 48 hours, with less of an effect noted within the first 12 hours of incubation”, the “mode of cell death / activity against melanoma” value (human melanoma; in words) was “potent activity against melanoma and a number of cancer cells; also recorded: apoptotic cell death has been induced” and the “pharmacological response in tadpole” value (Xenopus tadpole) was “effects like those produced by compound 1436”.

In the case of `C[C@H](CCC(=O)O)[C@H]1CC[C@H]2[C@@H]3C[C@@H](O)[C@H]4C[C@@H](NCCN)CC[C@]4(C)[C@H]3CC[C@]12C` [Compound 433], the “Chick embryo diss. assay” value [2] is reported as 1 µg and the “pharmacological response in tadpole” value (Xenopus tadpole) is reported as “functionally similar to compound 1437”.

With `COC(=O)CC[C@@H](C)[C@H]1CC[C@H]2[C@@H]3C[C@@H](O)[C@H]4C[C@@H](NCCCNCCCCNCCCN)CC[C@]4(C)[C@H]3CC[C@]12C` [Compound 466] the “Chick embryo diss. assay” value [2] was 1 µg and the “pharmacological response in tadpole” value (Xenopus tadpole) was “pharmacologic activity similar to that seen for FX 3”.

In the case of `C[C@H](CCC(=O)O)[C@H]1CC[C@H]2[C@@H]3CC[C@H]4C[C@@H](NCCCNCCCCN)CC[C@]4(C)[C@H]3CC[C@]12C` [Compound 319], the minimal effective concentration [3] is reported as 13.8 µg/mL, the “vascular reactivity” value ([2]; 0.001 μg applied) is reported as “+/-” and the “vascular reactivity” value ([2]; 0.01 μg applied) is reported as “+”. For the same compound, the “vascular reactivity” value ([2]; 0.1 μg applied) was “+”, the “vascular reactivity” value ([2]; 1 μg applied) was “+” and the “vascular reactivity” value ([2]; 10 μg applied) was “+”. For the same compound, the “Chick embryo diss. assay” value [2] was 0.001 µg, the “effect on chick embryo vessels / blood” value [2] was “especially active” and the “suppression of B16 melanoma tumor growth” value (B16 melanoma) was “achieved control of B16 in C57B mice to an extent almost comparable to squalamine”. For the same compound, the “suppression of B16 melanoma tumor growth” value (B16 melanoma; listed as compound 319) was “suppression of murine melanoma in mice” and the “pharmacological response in tadpole” value (Xenopus tadpole) was “common vascular occlusive effect”.

With `COC(=O)CC[C@@H](C)[C@H]1CC[C@H]2[C@@H]3C[C@@H](O)[C@H]4C[C@H](NCCN)CC[C@]4(C)[C@H]3CC[C@]12C` [Compound 431] the “Chick embryo diss. assay” value [2] was over 1 µg and the “pharmacological response in tadpole” value (Xenopus tadpole) was “functionally similar to compound 1437”.

In the case of `CC(C)C(CO)(CC[C@@H](C)[C@H]1CC[C@H]2[C@@H]3[C@H](O)C[C@H]4C[C@@H](NCCCNCCCCN)CC[C@]4(C)[C@H]3CC[C@]12C)OS(=O)(=O)O` (some centres unmarked) [Compound 1437], the “Chick embryo diss. assay” value [2] is reported as over 1 µg, the anticancer activity [4] is reported as “anticancer activity against the human ovarian carcinoma, SKOV3” and the hyperglycemia [5] is reported as “caused hyperglycemia in mice”.
